Tests used:
[1] = Antioxidant activity assessed as SIN1-induced ONOO scavenging activity at 1 uM incubated for 1250 secs by chemiluminescence method relative to control; format: functional; conditions: time 1250.0 sec
[2] = Antioxidant activity assessed as SIN1-induced ONOO scavenging activity at 1 mM incubated for 1250 secs by chemiluminescence method relative to control; format: functional; conditions: time 1250.0 sec
Rattus norvegicus = assay: Neuroprotective activity in Sprague-Dawley rat model of permanent middle cerebral artery occlusion assessed as infarction volume at 80 mg/kg, ip administered 2 hr post MCAO induction and measured 14 hrs post MCAO challenge by TTC staining based assay (reference value: 27.5%); format: functional; conditions: time 12 hrs
[3] = Drug concentration in Sprague-Dawley rat brain at 80 mg/kg, iv measured after 5 mins by reverse-phase HPLC method; format: ADME, organism-based; conditions: read-out: Ct

Structure (SMILES): Cc1nc(C)c(/C=[N+](\[O-])C(C)(C)C)nc1C
- Activity [1]: 35.3%
- Activity [2]: 94.7%
- Activity (Rattus norvegicus): 20.3%
- concentration at 5 min [3]: 650 µM
